Reference: paper PMC7997574, “Lead Optimization of Benzoxazolone Carboxamides as Orally Bioavailable and CNS Penetrant Acid Ceramidase Inhibitors” (Journal of Medicinal Chemistry, 2020)

Experiments:
SH-SY5Y cells = assay: Sphingolipid levels in SH-SY5Y cells by LC/MS; format: cell-based, human
Procedure: (§1) SH-SY5Y cells were purchased from Sigma Aldrich (Italy) and cultured in Dulbecco’s modified Eagle’s medium (DMEM) containing 10% fetal bovine serum at 37 °C and 5% CO2. Drugs were dissolved in DMSO (10 mM) and diluted in the cell culture medium with reduced serum (1%) for cell treatments.
Lipid extraction and sphingolipid measurements were performed as previously described.[36],[37] Lipids were extracted with a CHCl3/MeOH mixture (2:1, 3 mL) containing internal standards. The organic phase was collected, dried under nitrogen, and dissolved in CHCl3/MeOH (1:3) for LC/MS analyses. Ceramides and sphingosine were analyzed by LC/MS/MS, using a Waters ACQUITY UPLC coupled to a Waters Xevo TQMS and interfaced with an ESI ion source. Separation was performed on a Waters ACQUITY BEH C18 1.7 μm column (2.1 × 50 mm) at 60 °C. A linear gradient of 0.1% formic acid in MeCN/isopropyl alcohol (20:80) as solvent B in 0.1% formic acid in MeCN/H2O (20:80) as solvent A was applied at a flow rate of 0.4 mL min^–1. Detection of sphingolipids was performed in positive-ion mode. Capillary voltage was 3.5 kV, and cone voltage was 25 V. The source temperature and desolvation temperatures were set at 120 and 600 °C, respectively. Desolvation gas and cone gas (N2) flows were 800 and 20 L h^–1, respectively. Ceramides were identified by comparison of their LC retention times and MS/MS fragmentation patterns with those of authentic standards (Avanti Polar Lipids). Multiple Reaction Monitoring (MRM) ion chromatograms were used to quantify myristoyl ceramide (C14:0, m/z: 492.5 > 264.3), palmitoyl ceramide (C16:0, m/z 520.3 > 264.3), stearoyl ceramide (C18:0, m/z: 548.3 > 264.3), lignoceroyl ceramide (C24:0, m/z: 632.3 > 264.3), and nervonoyl ceramide (C24:1 m/z: 630.3 > 264.3) using lauroyl ceramide standard (m/z: 464.5 > 264.3). Detection and analysis were controlled by Waters MassLynx software version 4.1. Sphingosine was identified by comparison of its LC retention times and MS2 fragmentation patterns with those of authentic standards (Avanti Polar Lipids). Extracted ion chromatograms were used to quantify sphingosine standard (d18:1, m/z: 300.5 > 282.5). Detection and analysis were controlled by Waters MassLynx software version 4.1. Calibration curves were prepared for every experiment.

AC = target: T1, AC (Homo sapiens, UniProt Q13510); assay: hAC LC/MS-based activity assay in SH-SY5Y cells; format: cell-based; parameters: host or cells: SH-SY5Y
T1 sequence (Q13510 22-395): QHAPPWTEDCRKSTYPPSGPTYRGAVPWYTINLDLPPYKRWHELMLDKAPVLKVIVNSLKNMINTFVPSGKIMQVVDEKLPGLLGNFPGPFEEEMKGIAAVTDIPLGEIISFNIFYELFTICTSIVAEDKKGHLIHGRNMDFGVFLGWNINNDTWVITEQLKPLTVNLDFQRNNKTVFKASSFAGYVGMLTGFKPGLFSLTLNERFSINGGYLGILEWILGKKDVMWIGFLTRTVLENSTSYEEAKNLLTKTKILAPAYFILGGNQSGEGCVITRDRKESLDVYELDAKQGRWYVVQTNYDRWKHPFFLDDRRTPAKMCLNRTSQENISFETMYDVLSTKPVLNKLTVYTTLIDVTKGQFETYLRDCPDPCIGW
Procedure: as §1
hAC activity measurement was performed as previously described.[36],[37] Total lysates from cells were diluted in assay buffer (100 mM sodium phosphate, 0.1% Nonidet P-40, 150 mM NaCl, 3 mM DTT, 100 mM sodium citrate, pH 4.5). Reactions were started by the addition of 50 μM N-lauroyl ceramide (Nu-Chek Prep, Elysian, MN) and carried out for 1 h at 37 °C. Reactions were stopped by addition of a mixture of CHCl3/MeOH (2:1) containing 1 nmol of 11-lauroleic acid (Nu-Chek Prep). The organic phases were collected, dried under nitrogen, and analyzed by UPLC/MS (ACQUITY, Waters) in the negative-ion mode monitoring the reaction product (lauric acid, m/z: 199) using 11-lauroleic acid as internal standard. […] The [M–H]^− ion was monitored in the selected-ion monitoring mode (m/z values: lauric acid 199, 11-lauroleic acid 197.35). […]

## CC(C)CNC(=O)n1c(=O)oc2cc(C3CCN(C)CC3)ccc21 [22m, N-Isobutyl-6-(1-methyl-4-piperidyl)-2-oxo-1,3-benzoxazole-3-carboxamide]
SH-SY5Y cells
  hexosylceramide (HexCer) (d18:1/16:0) levels: no major variations
  sphingomyelin (SM) (d18:1/16:0) levels: no major variations
SH-SY5Y cells; 3 h of incubation
  ceramide levels, Cer (d18:0/16:0) and Cer (d18:1/16:0): intracellular accumulation of various ceramide species
  sphingosine levels: decrease in the levels of sphingosine
AC; 1, 2.5, 5, 10 μM, 30 min, 1 h, 3 h, 6 h
  AC activity in SH-SY5Y cells: concentration- (Figure 5A) and time-dependent reduction of AC activity
AC; SH-SY5Y cells, 10 μM
  persistence of effect on AC activity inhibition and SphL: persisted for up to 6 h
